Patent publication US20230338391A1, “TREATMENT FOR DEPRESSION” (TAKEDA PHARMACEUTICAL COMPANY LIMITED, priority 2020, published 2023)
Entries after “also recorded” stand apart in the source; their conditions may differ.

Experiments:
in vivo = experiment: in vivo; design: species or system Sprague-Dawley rats; conditions: both sexes, Sprague-Dawley, rat, po
Experimental: (§1) An appropriate amount of methylcellulose (MC) was weighed and mixed with a small amount of warm water for injection. The mixture was then diluted with water for injection to make a 0.5% (w/v) MC solution. The vehicle was used for dosing in the control group. To make a 40 mg/mL suspension of COMPOUND A, an appropriate amount of the test article was weighed and mixed with the vehicle using a planetary centrifugal mixer and the mixture was then diluted with additional vehicle. The 40 mg/mL suspension was used to make 20 and 10 mg/mL suspensions by stepwise dilutions with the vehicle. The dosing suspensions were stored in a refrigerator (actual values: 3.7° C. to 6.1° C., acceptable range: 2° C. to 8° C.) under light-resistant conditions (tight container) and used within 8 days after preparation.
(§2) Males and females in good condition were selected for this study based on examinations within 4 days before the first dosing. Based on their body weights, animals were stratified and allocated randomly to 3 main study groups, each composed of 18 males and 18 females, and 2 satellite groups each composed of 9 males and 9 females for determination of plasma drug and metabolite concentrations. Surplus animals after animal selection were excluded from the study on the day after the animal selection or the day dosing commenced (Day 1).
(§3) The behavior of the high-dose main study and TK satellite groups was video-recorded continuously throughout the dosing period (until the morning on the day of necropsy) under non-GLP conditions. The video-recorded images were kept on a hard drive and were archived as study data. […]
(§4) Each animal was weighed pre-dose using electronic balances (PB3002-S; Mettler-Toledo K.K. and UX4200H; Shimadzu Corporation) on Days 1, 2, 4, 7, 11, and 14 during the dosing period. Body weights were also measured for all animals on the day of necropsy on Days 3, 8, and 15, and these terminal body weight values were also used for calculation of the amount of anesthesia. […]

Sprague-Dawley rats = experiment: in vivo; conditions: female, rat, 200 mg/kg/day, 14 days
Experimental: as §1, §2, §3, §4

CNS excitability = experiment: TMS crossover study of CNS PD activity in healthy subjects
[1] = 0.5 mg and 6 mg single oral doses

## CC1=CN2CCS(=O)(=O)N=C2C(c2ccc(OC3CCCCC3)cc2)=N1 [COMPOUND A, 9-[4-(Cyclohexyloxy)phenyl]-7-methyl-3,4-dihydropyrazino[2,1-c][1,2,4]thiadiazine 2,2-dioxide]
In vivo
  NOAEL at 14 days: 100 mg/kg/day
Sprague-Dawley rats
  cerebellar Purkinje cell histopathology (HE, Fluoro-Jade): necrosis and/or Fluoro-Jade positive staining of Purkinje cells (dendrites, cell bodies, or axons) in 3 rats
  tonic convulsions (video recordings): tonic convulsions in 2 rats
CNS excitability; [1]
  SICI measurements and other secondary endpoints: not statistically significant
  changes from baseline in the rMT, single-pulse TMS: not statistically significant
CNS excitability; 0.5 mg single oral dose, 2.5 hours post-dose
  change from baseline of LICI 300 ms: statistically significant PD effect
CNS excitability; 6 mg single oral dose, 2.5 hours post-dose, stimulation intensity 120% of baseline rMT
  peak-to-peak amplitude of the MEP, single-pulse TMS, change from baseline vs placebo: statistically significant difference from baseline when compared with placebo; also recorded: statistically significant PD effect
